We go through six compounds from publication PMC6022752 (Journal of the American Chemical Society, 2018).

The conditions of series [1]: cited from earlier work.
The next series concerns the target JAK2 (Homo sapiens, UniProt O60674). Description: HotSpot 10-dose dose-response kinase assay: JAK2. It counts as biochemical. As to conditions: read-out: Dose-response IC50 JAK2; 10-dose dose-response, 1 μM ATP.
In the next series the target is BRAF (Homo sapiens, UniProt P15056). Put plainly: HotSpot 10-dose dose-response kinase assay: BRAF. It counts as biochemical. As to conditions: read-out: Dose-response IC50 BRAF; 10-dose dose-response, 1 μM ATP.
BRAF, sequence (P15056 whole entry): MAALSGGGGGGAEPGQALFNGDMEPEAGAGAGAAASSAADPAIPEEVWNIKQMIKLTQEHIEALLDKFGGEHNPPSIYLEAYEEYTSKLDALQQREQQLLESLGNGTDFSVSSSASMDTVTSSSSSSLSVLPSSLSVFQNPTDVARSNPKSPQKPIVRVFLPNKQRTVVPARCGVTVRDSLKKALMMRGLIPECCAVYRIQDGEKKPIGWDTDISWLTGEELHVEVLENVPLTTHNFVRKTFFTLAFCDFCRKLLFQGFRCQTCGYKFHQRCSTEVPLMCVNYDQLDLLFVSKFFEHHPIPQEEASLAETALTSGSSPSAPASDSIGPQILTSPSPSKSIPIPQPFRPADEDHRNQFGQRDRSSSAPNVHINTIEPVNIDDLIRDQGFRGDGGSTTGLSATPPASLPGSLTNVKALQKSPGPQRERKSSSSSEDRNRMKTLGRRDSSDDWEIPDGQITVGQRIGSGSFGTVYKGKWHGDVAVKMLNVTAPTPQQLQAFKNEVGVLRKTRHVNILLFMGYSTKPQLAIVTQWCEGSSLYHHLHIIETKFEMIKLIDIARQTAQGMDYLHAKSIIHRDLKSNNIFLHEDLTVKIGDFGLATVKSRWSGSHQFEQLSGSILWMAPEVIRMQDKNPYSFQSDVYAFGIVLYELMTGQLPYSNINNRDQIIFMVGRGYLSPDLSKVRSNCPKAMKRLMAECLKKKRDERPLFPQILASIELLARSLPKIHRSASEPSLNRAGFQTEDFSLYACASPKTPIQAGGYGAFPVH
Another series concerns the target EGFR (d746–750) (Homo sapiens, UniProt P00533, DEL746-750). Description: HotSpot 10-dose dose-response kinase assay: EGFR. The format is biochemical. As to conditions: read-out: Dose-response IC50 EGFR (d746–750); 10-dose dose-response, 1 μM ATP.
For the next series, the target named is RET (Homo sapiens, UniProt P07949). Description: HotSpot 10-dose dose-response kinase assay: RET. It counts as biochemical. As to conditions: read-out: Dose-response IC50 RET; 10-dose dose-response, 1 μM ATP.
In the next series the target is PDGFRa (Homo sapiens, UniProt P16234). Description: HotSpot 10-dose dose-response kinase assay: PDGFRa. The format is biochemical. As to conditions: read-out: Dose-response IC50 PDGFRa; 10-dose dose-response, 1 μM ATP.
PDGFRa, sequence (P16234 24-1089): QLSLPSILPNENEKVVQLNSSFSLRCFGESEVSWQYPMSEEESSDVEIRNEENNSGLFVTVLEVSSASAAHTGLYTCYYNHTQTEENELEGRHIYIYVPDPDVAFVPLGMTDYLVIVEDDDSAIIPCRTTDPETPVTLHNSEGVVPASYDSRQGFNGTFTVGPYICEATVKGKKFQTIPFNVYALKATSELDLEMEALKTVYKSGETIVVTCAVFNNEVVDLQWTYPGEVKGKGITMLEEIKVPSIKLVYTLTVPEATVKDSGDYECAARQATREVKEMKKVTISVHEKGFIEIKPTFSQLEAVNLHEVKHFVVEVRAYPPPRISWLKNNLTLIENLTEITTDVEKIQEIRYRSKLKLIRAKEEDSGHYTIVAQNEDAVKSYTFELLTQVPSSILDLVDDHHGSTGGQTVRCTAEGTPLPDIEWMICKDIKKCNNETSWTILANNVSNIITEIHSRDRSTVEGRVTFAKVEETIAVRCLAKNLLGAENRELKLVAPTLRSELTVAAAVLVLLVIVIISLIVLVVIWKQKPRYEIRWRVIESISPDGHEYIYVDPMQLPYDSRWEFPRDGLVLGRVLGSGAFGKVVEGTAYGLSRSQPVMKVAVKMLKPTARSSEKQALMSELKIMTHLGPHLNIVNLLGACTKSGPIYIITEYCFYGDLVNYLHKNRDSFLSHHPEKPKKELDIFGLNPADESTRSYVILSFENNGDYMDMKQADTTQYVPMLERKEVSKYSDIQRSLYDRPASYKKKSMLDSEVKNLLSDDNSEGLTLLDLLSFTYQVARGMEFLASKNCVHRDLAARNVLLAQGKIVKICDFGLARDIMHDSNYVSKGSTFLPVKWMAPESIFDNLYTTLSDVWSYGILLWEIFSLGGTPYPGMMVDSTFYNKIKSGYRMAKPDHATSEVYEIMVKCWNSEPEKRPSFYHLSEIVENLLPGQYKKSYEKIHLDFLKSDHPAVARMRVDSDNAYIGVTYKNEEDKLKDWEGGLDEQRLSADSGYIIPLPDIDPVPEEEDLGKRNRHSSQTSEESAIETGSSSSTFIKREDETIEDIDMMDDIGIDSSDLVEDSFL
The subject of a further series is ANT. To be noted: read-out: IC50 ANT inhibition; cited from earlier work.
The target of a further series is EGFR (L858R, T790M) (Homo sapiens, UniProt P00533, L858R/T790M). Put plainly: HotSpot 10-dose dose-response kinase assay: EGFR. As to conditions: read-out: Dose-response IC50 EGFR (L858R, T790M); 10-dose dose-response, 1 μM ATP. It counts as biochemical.
In another series the target is EGFR (G719S) (Homo sapiens, UniProt P00533, G719S). Description: HotSpot 10-dose dose-response kinase assay: EGFR. To be noted: read-out: Dose-response IC50 EGFR (G719S); 10-dose dose-response, 1 μM ATP. It counts as biochemical.
A further series deals with EGFR (T790M) (Homo sapiens, UniProt P00533, T790M). Description: HotSpot 10-dose dose-response kinase assay: EGFR. It counts as biochemical. To be noted: read-out: Dose-response IC50 EGFR (T790M); 10-dose dose-response, 1 μM ATP.
For a further series, the target named is TYK2 (Homo sapiens, UniProt P29597). Description: 369-kinase HotSpot kinome screen: TYK2. The format is biochemical. To be noted: read-out: Tyk2 inhibition, from kinome screen.
In the next series the target is EGFR (L858R) (Homo sapiens, UniProt P00533, L858R). Description: HotSpot 10-dose dose-response kinase assay: EGFR. It counts as biochemical. As to conditions: read-out: Dose-response IC50 EGFR (L858R); 10-dose dose-response, 1 μM ATP.
A further series has as its target DDR2 (Homo sapiens, UniProt Q16832). Description: HotSpot 10-dose dose-response kinase assay: DDR2. It counts as biochemical. As to conditions: read-out: Dose-response IC50 DDR2; 10-dose dose-response, 1 μM ATP.
The next series addresses JAK1 (Homo sapiens, UniProt P23458). Description: HotSpot 10-dose dose-response kinase assay: JAK1. The format is biochemical. As to conditions: read-out: Dose-response IC50 JAK1; 10-dose dose-response, 1 μM ATP.
Another series addresses JAK3 (Homo sapiens, UniProt P52333). Put plainly: HotSpot 10-dose dose-response kinase assay: JAK3. The format is biochemical. As to conditions: read-out: Dose-response IC50 JAK3; 10-dose dose-response, 1 μM ATP.
In a further series the target is PKCepsilon (Homo sapiens, UniProt Q02156). Description: HotSpot 10-dose dose-response kinase assay: PKCepsilon. It counts as biochemical. To be noted: read-out: Dose-response IC50 PKCepsilon; 10-dose dose-response, 1 μM ATP.
PKCepsilon, sequence (Q02156 whole entry): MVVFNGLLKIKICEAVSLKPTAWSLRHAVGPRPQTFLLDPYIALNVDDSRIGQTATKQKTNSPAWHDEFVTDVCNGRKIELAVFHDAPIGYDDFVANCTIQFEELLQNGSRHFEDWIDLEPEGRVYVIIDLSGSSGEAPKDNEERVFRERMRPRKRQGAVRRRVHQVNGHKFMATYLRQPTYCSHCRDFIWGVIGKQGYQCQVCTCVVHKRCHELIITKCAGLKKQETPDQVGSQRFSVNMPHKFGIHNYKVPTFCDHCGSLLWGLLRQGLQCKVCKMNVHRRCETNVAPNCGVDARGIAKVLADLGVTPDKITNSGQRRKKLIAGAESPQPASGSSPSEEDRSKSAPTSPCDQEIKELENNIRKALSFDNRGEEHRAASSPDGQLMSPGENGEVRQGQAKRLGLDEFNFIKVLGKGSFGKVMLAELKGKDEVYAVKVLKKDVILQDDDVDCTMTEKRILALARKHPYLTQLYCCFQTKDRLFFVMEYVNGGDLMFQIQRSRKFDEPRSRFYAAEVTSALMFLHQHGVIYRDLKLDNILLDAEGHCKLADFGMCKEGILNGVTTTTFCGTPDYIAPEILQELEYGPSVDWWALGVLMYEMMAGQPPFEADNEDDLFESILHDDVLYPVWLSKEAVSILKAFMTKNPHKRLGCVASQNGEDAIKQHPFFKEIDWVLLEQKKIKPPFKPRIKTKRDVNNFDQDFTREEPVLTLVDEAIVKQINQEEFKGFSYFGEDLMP
A further series has as its target ABL1 (Homo sapiens, UniProt P00519). Description: HotSpot 10-dose dose-response kinase assay: ABL1. The format is biochemical. As to conditions: read-out: Dose-response IC50 ABL1; 10-dose dose-response, 1 μM ATP.
Another series deals with BRAF (V599E) (Homo sapiens, UniProt P15056, V600E). Description: HotSpot 10-dose dose-response kinase assay: BRAF. As to conditions: read-out: Dose-response IC50 BRAF (V599E); 10-dose dose-response, 1 μM ATP. The format is biochemical.
The subject of a further series is kinases. Description: Other kinase assays. The format is biochemical. As to conditions: Figures S10 and S11.
Another series has as its target EGFR (Homo sapiens, UniProt P00533). Description: EGFR wild type kinase-domain inhibition assay.
The subject of series [2] is MCF-7, SW620, SW480, H460, A549, and MDA-MB-231 cell lines. Description: GGOH rescue of cell growth inhibition. It counts as cell-based. To be noted: six cell lines, 20 μM GGOH.

JAK3, sequence (P52333 whole entry): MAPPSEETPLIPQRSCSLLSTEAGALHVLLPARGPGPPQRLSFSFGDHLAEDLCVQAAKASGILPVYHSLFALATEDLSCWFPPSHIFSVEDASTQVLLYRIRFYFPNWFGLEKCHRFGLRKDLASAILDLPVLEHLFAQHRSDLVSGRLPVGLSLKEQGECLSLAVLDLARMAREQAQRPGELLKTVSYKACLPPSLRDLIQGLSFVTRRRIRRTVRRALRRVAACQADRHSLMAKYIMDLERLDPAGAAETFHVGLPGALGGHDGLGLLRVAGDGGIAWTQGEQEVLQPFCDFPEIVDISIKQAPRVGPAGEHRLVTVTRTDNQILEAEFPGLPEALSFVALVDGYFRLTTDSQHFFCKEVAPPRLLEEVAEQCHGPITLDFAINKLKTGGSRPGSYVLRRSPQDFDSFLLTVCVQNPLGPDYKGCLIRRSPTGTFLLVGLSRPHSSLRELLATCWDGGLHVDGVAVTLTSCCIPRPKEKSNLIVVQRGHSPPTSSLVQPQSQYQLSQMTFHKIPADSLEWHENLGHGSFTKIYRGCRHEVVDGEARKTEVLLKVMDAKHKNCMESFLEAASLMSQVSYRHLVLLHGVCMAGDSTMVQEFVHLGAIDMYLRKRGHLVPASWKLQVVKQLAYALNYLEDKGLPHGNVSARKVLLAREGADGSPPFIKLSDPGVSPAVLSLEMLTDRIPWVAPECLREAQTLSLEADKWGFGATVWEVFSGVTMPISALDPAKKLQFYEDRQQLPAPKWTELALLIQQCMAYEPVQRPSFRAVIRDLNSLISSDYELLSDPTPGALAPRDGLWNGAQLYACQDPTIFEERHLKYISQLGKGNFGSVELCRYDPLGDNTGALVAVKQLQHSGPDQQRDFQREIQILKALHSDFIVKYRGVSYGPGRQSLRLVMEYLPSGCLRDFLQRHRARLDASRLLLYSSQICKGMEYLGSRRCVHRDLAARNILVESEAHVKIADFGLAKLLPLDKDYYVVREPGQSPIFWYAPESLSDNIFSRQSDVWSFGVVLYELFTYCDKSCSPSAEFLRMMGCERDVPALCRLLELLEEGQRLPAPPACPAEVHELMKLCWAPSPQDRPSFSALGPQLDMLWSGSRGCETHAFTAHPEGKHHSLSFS
JAK2, sequence (O60674 whole entry): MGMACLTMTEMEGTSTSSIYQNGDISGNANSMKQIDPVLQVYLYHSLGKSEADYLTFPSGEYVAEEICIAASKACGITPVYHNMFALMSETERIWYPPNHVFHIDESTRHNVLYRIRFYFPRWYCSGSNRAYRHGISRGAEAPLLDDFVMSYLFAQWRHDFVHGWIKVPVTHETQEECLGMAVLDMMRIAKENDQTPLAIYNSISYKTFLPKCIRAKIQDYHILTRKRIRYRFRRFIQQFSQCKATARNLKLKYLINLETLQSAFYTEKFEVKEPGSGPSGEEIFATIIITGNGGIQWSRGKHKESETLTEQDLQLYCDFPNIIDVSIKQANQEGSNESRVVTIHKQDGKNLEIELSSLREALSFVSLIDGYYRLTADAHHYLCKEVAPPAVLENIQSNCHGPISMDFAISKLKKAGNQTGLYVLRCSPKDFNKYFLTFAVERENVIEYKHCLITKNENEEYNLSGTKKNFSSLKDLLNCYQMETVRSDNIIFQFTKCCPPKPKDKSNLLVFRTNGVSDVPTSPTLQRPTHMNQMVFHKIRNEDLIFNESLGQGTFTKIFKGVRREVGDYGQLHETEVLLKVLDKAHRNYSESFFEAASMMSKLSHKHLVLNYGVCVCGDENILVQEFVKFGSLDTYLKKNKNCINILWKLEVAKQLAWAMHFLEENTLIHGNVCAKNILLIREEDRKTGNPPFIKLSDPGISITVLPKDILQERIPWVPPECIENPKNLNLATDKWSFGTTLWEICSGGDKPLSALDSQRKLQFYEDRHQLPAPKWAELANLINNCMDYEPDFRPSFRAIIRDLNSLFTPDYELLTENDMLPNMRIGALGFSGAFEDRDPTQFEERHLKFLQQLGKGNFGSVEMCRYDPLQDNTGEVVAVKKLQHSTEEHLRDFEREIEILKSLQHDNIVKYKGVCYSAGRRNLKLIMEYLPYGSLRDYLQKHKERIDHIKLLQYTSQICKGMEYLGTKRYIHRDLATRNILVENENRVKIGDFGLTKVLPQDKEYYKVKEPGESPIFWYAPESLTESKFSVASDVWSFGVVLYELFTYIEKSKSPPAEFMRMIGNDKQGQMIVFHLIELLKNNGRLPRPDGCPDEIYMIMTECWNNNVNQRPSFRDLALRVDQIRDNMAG

Regarding `Nc1ncnc2c1ncn2[C@@H]1O[C@H](COP(=O)(O)OP(=O)(O)OP(=O)(O)O)[C@@H](O)[C@H]1O` [ATP], the pKa4 in series [1] is reported as 7.1.

For `Nc1ncnc2c1ncn2[C@@H]1O[C@H](COP(=O)(O)OP(=O)(O)C(Cl)(Cl)P(=O)(O)O)[C@@H](O)[C@H]1O` [compound 4, adenosine 5′-(beta, gamma-dichloro-methylene) diphosphate], the IC50 was 13 nM on JAK2; 6.4 µM on BRAF; 4.3 µM on EGFR (d746–750); 140 nM on RET; 4 nM on PDGFRa; roughly 50 µM in the series with ANT. Moreover, the IC50 at EGFR (L858R, T790M) was 80 nM; on EGFR (G719S), 760 nM; on EGFR (T790M), 270 nM; on TYK2, roughly 230 nM; on EGFR (L858R) it was 490 nM; on DDR2 it was 47 nM. Also, the IC50 on JAK1 came to 66 nM; at JAK3, 5 nM; on PKCepsilon, 43 nM; on ABL1, 79 nM; at BRAF (V599E), 230 µM.

Regarding `Nc1ncnc2c1ncn2C1OC(COP(=O)(O)OP(=O)(O)C(Sc2ccc(Cl)cc2)P(=O)(O)O)C(O)C1O` (stereo not shown) [compound 5], in the series with kinases, the “activity in other kinase assays” value was “low activity”.

`O=P(O)(O)C(O)(Cn1ccnc1)P(=O)(O)O` [compound 6, zoledronate]: the IC50 at EGFR amounted to 72 ± 12 µM.

With `Nc1ncnc2c1ncn2[C@@H]1O[C@H](COP(=O)(O)OP(=O)(O)C(Br)(Br)P(=O)(O)O)[C@@H](O)[C@H]1O` [compound 23], the IC50 on EGFR (L858R, T790M) was determined as 16 nM.

`NCCC(O)(P(=O)(O)O)P(=O)(O)O` [pamidronate]: in series [2], the “GGOH rescue of growth inhibition” value is “very small rescue effects”.
